Data as given in PubChem BioAssay (NCI).
“And” between values parts separate entries of the source, which are not always exact repeats. Equal entries are not always repeated.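 Cultured in 96-well plates, cells were exposed to test compound for 48 hours across five concentrations. GI50 = concentration required for 50% inhibition of growth. TGI denotes the concentration required for complete inhibition of growth.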

How the values were obtained:
Test in all cases: NCI-60 cell line screen, 48 h
[1] = tested on: CCRF-CEM leukemia
[2] = tested on: HOP-62 NSCLC
[3] = tested on: M14 melanoma
[4] = tested on: UACC-62 melanoma
[5] = tested on: RPMI-8226 leukemia
[6] = tested on: OVCAR-3 ovarian
[7] = tested on: SNB-19 CNS
[8] = tested on: NCI-H226 lung
[9] = tested on: MOLT-4 leukemia
[10] = tested on: HT29 colon

Row | Compound | TGI [1] | TGI [2] | TGI [3] | TGI [4] | TGI [5] | TGI [6] | TGI [7] | TGI [8] | TGI [9] | TGI [10] | GI50 [1] | GI50 [2] | GI50 [3] | GI50 [4] | GI50 [5] | GI50 [6] | GI50 [7] | GI50 [8] | GI50 [9] | GI50 [10]
1 | CCCCC1N=CNc2c1ccc1c2[nH]c2ccccc21 (configuration not stated) | 5.89 µM | 9.97 µM | 6.74 µM | 8.94 µM | 5.13 µM | 12.2 µM | 24.9 µM | > 61.1 µM | 6.51 µM | 3.95 µM | – | – | – | – | – | – | – | – | – | –
2 | O=[P+](O)c1cccnc1 | > 100 µM | > 100 µM | > 100 µM | > 100 µM | > 100 µM | > 100 µM | > 100 µM | > 100 µM | > 100 µM | > 100 µM | – | – | – | – | – | – | – | – | – | –
3 | Cn1cc(-c2ccc3nnc(C(F)(F)c4ccc5ncccc5c4)n3n2)cn1 | > 100 µM | > 100 µM | > 100 µM | > 100 µM | > 100 µM | > 100 µM | > 100 µM | > 100 µM | > 100 µM | > 100 µM | 98.7 µM | 56.4 µM | > 100 µM | 66.1 µM | 88.6 µM | 80.5 µM | 53.4 µM | 58.5 µM | 52.5 µM | 63.6 µM
4 | C=C1CCC2(C(C)=O)COC1(C)O2 (configuration not stated) | > 100 µM | > 100 µM | > 100 µM | > 100 µM | > 100 µM | > 100 µM | > 100 µM | > 100 µM | > 100 µM | > 100 µM | – | – | – | – | – | – | – | – | – | –
5 | CCCCCCn1c2c(c3c(O)cccc31)C(=O)c1ccccc1-2 | 50 µM | 33.8 µM | 30.2 µM | 31.7 µM | 41.9 µM | 43 µM | > 100 µM | 39.7 µM | > 100 µM | > 100 µM | 23.2 µM | 18.4 µM | 15.7 µM | 17.5 µM | 20.3 µM | 20.6 µM | 39.4 µM | 21.6 µM | 28.7 µM | 35.6 µM
6 | C/C(CC(=O)Nc1cccc(C)c1C)=N\NC(N)=S | > 100 µM | > 100 µM | > 100 µM | > 100 µM | > 100 µM | > 100 µM | > 100 µM | > 100 µM | > 100 µM | > 100 µM | – | – | – | – | – | – | – | – | – | –
7 | O=C1Nc2c(ccc(Cl)c2Cl)/C1=C\c1cc(C(F)(F)F)cc(C(F)(F)F)c1 | 2.58 µM | 14.4 µM | 11.3 µM | 7.41 µM | 1.45 µM | 4.27 µM | 19.3 µM | 13.7 µM | 4.68 µM | 6.68 µM | 0.959 µM | 7.04 µM | 5.06 µM | 1.77 µM | 0.115 µM | 1.1 µM | 5.7 µM | 5.48 µM | 2.09 µM | 1.95 µM
8 | CSc1nc(SC)c2c(C)cn(C3OC(C)C(O)C(O)C3O)c2n1 (configuration not stated) | > 100 µM | > 100 µM | > 100 µM | > 100 µM | > 100 µM | > 100 µM | > 100 µM | > 100 µM | > 100 µM | > 100 µM | – | – | – | – | – | – | – | – | – | –
9 | O=C(c1ccccc1)c1c2n(c3c1cc(O)c1ccccc13)CCN2 | 4.67 µM | 17.9 µM | 19.3 µM | 17.4 µM | 6.47 µM | 7.82 µM | 3.46 µM | 41.3 µM | 4.45 µM | 15.5 µM | 1.99 µM | 5.6 µM | 7.09 µM | 5.15 µM | 2.42 µM | 2.23 µM | 1.85 µM | 18.6 µM | 2.06 µM | 3.67 µM
10 | Cc1cc(C)c(C(=O)/C(=C/c2ccccc2)c2ccccc2)c(C)c1 | > 100 µM | > 100 µM | > 100 µM | > 100 µM | > 100 µM | > 100 µM | > 100 µM | > 100 µM | > 100 µM | > 100 µM | – | – | – | – | – | – | – | – | – | –
11 | O=c1sc(-c2nc3ccccc3[nH]2)c(/N=C/c2ccccc2)n1-c1ccccc1 | > 100 µM | 73.7 µM | > 100 µM | > 100 µM | > 100 µM | 65.6 µM | > 100 µM | 38.3 µM | > 100 µM | > 100 µM | – | – | – | – | – | – | – | – | – | –
12 | Cc1ccc(S(=O)(=O)OC2CSSCC2OS(=O)(=O)c2ccc(C)cc2)cc1 (configuration not stated) | 28.3 µM | 43.2 µM | 25.1 µM | 24.6 µM | 46.3 µM | 26.2 µM | 31.7 µM | 33.6 µM | 7.61 µM | 22 µM | – | – | – | – | – | – | – | – | – | –
13 | CN(CC1NCCCC1O)C12CC3CC(CC(C3)C1)C2 (configuration not stated) | > 100 µM | > 100 µM | > 100 µM | > 100 µM | > 100 µM | > 100 µM | > 100 µM | > 100 µM | > 100 µM | > 100 µM | – | – | – | – | – | – | – | – | – | –
14 | CC(C)OC(=O)c1cccnc1/C=N/O | > 100 µM | > 100 µM | > 100 µM | > 100 µM | > 100 µM | > 100 µM | > 100 µM | > 100 µM | > 100 µM | > 100 µM | – | – | – | – | – | – | – | – | – | –
15 | c1ccc(N2N=NC3C4CC(C5c6ccccc6C45)C32)cc1 (configuration not stated) | > 100 µM | > 100 µM | > 100 µM | > 100 µM | > 100 µM | > 100 µM | > 100 µM | 96.3 µM | 73.4 µM | 40.3 µM | – | – | – | – | – | – | – | – | – | –
16 | COc1c(OC)c(OC)c(-c2cc(=O)c3c(OC)c(OC)c(OC)c(OC)c3o2)c(OC)c1OC | > 100 µM | > 100 µM | > 100 µM | > 100 µM | > 100 µM | 33.5 µM | > 100 µM | > 100 µM | > 100 µM | 86.4 µM | – | – | – | – | – | – | – | – | – | –
17 | COc1ccc(/C=C/C(=O)c2ccccc2)cc1OC | – | 31.1 µM and 43 µM | 30 µM and 29.6 µM | 27.1 µM and 27.3 µM | > 100 µM and 25.3 µM | 25.3 µM and 26.8 µM | 24.6 µM and 26.7 µM | 53.6 µM and 32.3 µM | > 100 µM | 22.2 µM and 16.2 µM | 3.72 µM | 19.3 µM | – | 11.7 µM | 3.93 µM | 7.38 µM | – | 16.4 µM | 17.9 µM | 3.86 µM
18 | O=Cc1cn(S(=O)(=O)c2ccccc2)c2ccccc12 | > 100 µM | > 100 µM | > 100 µM | 86 µM | 59.3 µM | > 100 µM | > 100 µM | > 100 µM | 53.1 µM | > 100 µM | – | – | – | – | – | – | – | – | – | –
19 | [Au+].c1c[n-]cn1.c1ccc([PH+](c2ccccc2)c2ccccc2)cc1 | 17.3 µM | 43 µM | 6.73 µM | 29.2 µM | > 90.8 µM | 5.2 µM | 18 µM | 51.3 µM | 5.15 µM | 24.7 µM | 1.78 µM | 6.24 µM | 2.34 µM | 5.17 µM | 8.93 µM | 2.43 µM | 7.28 µM | 12.8 µM | 2.07 µM | 8 µM
20 | COC(=O)c1cc2c(nc1C)-c1ccccc1OS2(=O)=O | > 100 µM | 67.8 µM | > 100 µM | > 100 µM | > 100 µM | > 100 µM | > 100 µM | > 100 µM | > 100 µM | > 100 µM | – | – | – | – | – | – | – | – | – | –
